# Test results as given in patent US9169254B2, “Spiroimidazolone derivative” (Chugai Seiyaku Kabushiki Kaisha, priority 2009, dated 2015).
# Target: T1, human PTH1 receptor (Homo sapiens, UniProt Q03431)
# T1 sequence (Q03431 27-593): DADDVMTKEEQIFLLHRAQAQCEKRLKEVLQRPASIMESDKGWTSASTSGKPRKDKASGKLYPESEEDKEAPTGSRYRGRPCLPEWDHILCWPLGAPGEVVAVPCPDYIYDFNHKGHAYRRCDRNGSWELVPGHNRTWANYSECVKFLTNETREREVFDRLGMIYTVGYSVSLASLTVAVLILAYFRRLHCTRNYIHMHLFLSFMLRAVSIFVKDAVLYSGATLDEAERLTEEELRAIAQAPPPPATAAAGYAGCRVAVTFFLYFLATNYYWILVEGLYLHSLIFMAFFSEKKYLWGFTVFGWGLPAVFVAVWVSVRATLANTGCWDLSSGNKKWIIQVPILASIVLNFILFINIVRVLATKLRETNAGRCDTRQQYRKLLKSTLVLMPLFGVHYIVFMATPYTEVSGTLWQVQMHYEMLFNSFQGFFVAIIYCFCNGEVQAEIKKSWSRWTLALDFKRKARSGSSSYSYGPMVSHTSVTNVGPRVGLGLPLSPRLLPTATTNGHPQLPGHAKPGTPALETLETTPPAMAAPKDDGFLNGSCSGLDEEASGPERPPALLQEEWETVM
# Test: In vitro cAMP signal activity in HKRK-B7 cells (LLC-PK1 cells overexpressing the human PTH1 receptor)
# Format: cell-based
# Conditions: HKRK-B7 cells; compound at 1×10^−3 M; […]; 0.1 µM
row,SMILES,cAMP production activity (%)
1,"Cc1cc(N(C)C(=O)NCCN(C)C)ccc1/C=C/S(=O)(=O)N1CCC2(CC1)N=C(c1cccc(OC(F)(F)F)c1)NC2=O [Compound 457, 3-(2-Dimethylamino-ethyl)-1-methyl-1-(3-methyl-4-{(E)-2-[4-oxo-2-(3-trifluoromethoxy-phenyl)-1,3,8-triaza-spiro[4.5]dec-1-ene-8-sulfonyl]-vinyl}-phenyl)-urea]",25

# Same assay, conditions: HKRK-B7 cells; compound at 1×10^−3 M; cAMP produced as percentage of that produced by hPTH(1-34) at 100 nM
row,SMILES,cAMP production activity (%)
1,"Cc1cc(CN2C(=O)CNC2=O)cc(C)c1CCS(=O)(=O)N1CCC2(CC1)N=C(C1CCC(C)CC1)NC2=O (stereo not drawn) [Compound 779, 3-(3,5-dimethyl-4-{2-[2-(4-methyl-cyclohexyl)-4-oxo-1,3,8-triaza-spiro[4.5]dec-1-ene-8-sulfonyl]-ethyl}-benzyl)-imidazolidine-2,4-dione]",53
2,"CCCCCCCCCC1=NC2(CCN(S(=O)(=O)CCc3c(C)cc(OCCC(O)CO)cc3C)CC2)C(=O)N1 (stereo not drawn) [Compound 798, 8-{2-[4-(3,4-dihydroxy-butoxy)-2,6-dimethyl-phenyl]-ethanesulfonyl}-2-nonyl-1,3,8-triaza-spiro[4.5]dec-1-en-4-one]",101
3,"CCC1CCC(C2=NC3(CCN(S(=O)(=O)CCc4ccc(C(=O)N5CCN(CCF)CC5)cc4C)CC3)C(=O)N2)CC1 (stereo not drawn) [Compound 975, 2-(4-Ethyl-cyclohexyl)-8-(2-{4-[4-(2-fluoro-ethyl)-piperazine-1-carbonyl]-2-methyl-phenyl}-ethanesulfonyl)-1,3,8-triaza-spiro[4.5]dec-1-en-4-one]",74
4,"Cc1cc(N(C)C(N)=O)cc(C)c1/C=C/S(=O)(=O)N1CCC2(CC1)N=C(c1cccc(SC(F)(F)F)c1)NC2=O [Compound 1305, 1-(3,5-dimethyl-4-{(E)-2-[4-oxo-2-(3-trifluoromethylsulfanyl-phenyl)-1,3,8-triaza-spiro[4.5]dec-1-ene-8-sulfonyl]-vinyl}-phenyl)-1-methyl-urea]",138
5,"Cc1cc(C(=O)N2CCC(O)(CF)CC2)cc(C)c1/C=C/S(=O)(=O)N1CCC2(CC1)N=C(c1ccc(OCCCC(F)(F)C(F)(F)F)c(C(F)(F)F)c1)NC2=O [Compound 1252, 8-{(E)-2-[4-(4-fluoromethyl-4-hydroxy-piperidine-1-carbonyl)-2,6-dimethyl-phenyl]-ethenesulfonyl}-2-[4-(4,4,5,5,5-pentafluoro-pentyloxy)-3-trifluoromethyl-phenyl]-1,3,8-triaza-spiro[4.5]dec-1-en-4-one]",72
6,"Cc1cc(OCCC(O)CO)ccc1/C=C/S(=O)(=O)N1CCC2(CC1)N=C(c1cccc(C(F)(F)F)c1F)NC2=O (stereo not drawn) [Compound 247, 8-{(E)-2-[4-(3,4-Dihydroxy-butoxy)-2-methyl-phenyl]-ethenesulfonyl}-2-(2-fluoro-3-trifluoromethyl-phenyl)-1,3,8-triaza-spiro[4.5]dec-1-en-4-one]",81
7,"CCCS(=O)(=O)N1CCCC(C2=NC3(CCN(S(=O)(=O)c4cccc(Cl)c4)CC3)C(=O)N2)C1 (stereo not drawn) [Compound 40, 8-(3-chloro-benzenesulfonyl)-2-[1-(propane-1-sulfonyl)-piperidin-3-yl]-1,3,8-triaza-spiro[4.5]dec-1-en-4-one]",19
8,"Cc1cc(C(=O)N(C)C)ccc1CCS(=O)(=O)N1CCC2(CC1)N=C(C1CCC(F)(F)CC1)NC2=O [Compound 890, 4-{2-[2-(4,4-Difluoro-cyclohexyl)-4-oxo-1,3,8-triaza-spiro[4.5]dec-1-ene-8-sulfonyl]-ethyl}-3,N,N-trimethyl-benzamide]",61
9,"CC(=O)Nc1ccc(CCS(=O)(=O)N2CCC3(CC2)N=C(C2CCC(CC(F)(F)C(F)(F)F)CC2)NC3=O)c(C)c1 (stereo not drawn) [Compound 1080, N-[3-Methyl-4-(2-{4-oxo-2-[4-(2,2,3,3,3-pentafluoro-propyl)-cyclohexyl]-1,3,8-triaza-spiro[4.5]dec-1-ene-8-sulfonyl}-ethyl)-phenyl]-acetamide]",81
10,"Cc1cccc(NCCO)c1/C=C/S(=O)(=O)N1CCC2(CC1)N=C(C1CCCCC1)NC2=O [Compound 200, 2-cyclohexyl-8-{(E)-2-[2-(2-hydroxy-ethylamino)-6-methyl-phenyl]-ethenesulfonyl}-1,3,8-triaza-spiro[4.5]dec-1-en-4-one]",37
11,"Cc1cc(C(=O)N(C)C)ccc1CCS(=O)(=O)N1CCC2(CC1)N=C(NCC1CCCCC1)NC2=O [Compound 1399, 4-{2-[2-(cyclohexylmethyl-amino)-4-oxo-1,3,8-triaza-spiro[4.5]dec-1-ene-8-sulfonyl]-ethyl}-3,N,N-trimethyl-benzamide]",20
12,"O=C(OCc1ccccc1)N1CCCC(C2=NC3(CCN(S(=O)(=O)c4cccc(Cl)c4)CC3)C(=O)N2)C1 (stereo not drawn) [Compound 461, 3-[8-(3-chloro-benzenesulfonyl)-4-oxo-1,3,8-triaza-spiro[4.5]dec-1-en-2-yl]-piperidine-1-carboxylic acid benzyl ester]",51
13,"O=C1NC(C2CCCCC2)=NC12CCN(S(=O)(=O)CCc1cccc3cnccc13)CC2 [Compound 320, 2-cyclohexyl-8-(2-isoquinolin-5-yl-ethanesulfonyl)-1,3,8-triaza-spiro[4.5]dec-1-en-4-one]",33
14,"Cc1cc(S(=O)(=O)NC[C@@H](O)CO)ccc1CCS(=O)(=O)N1CCC2(CC1)N=C(c1cccc(OC(F)(F)F)c1)NC2=O [Compound 851, N—((R)-2,3-dihydroxy-propyl)-3-methyl-4-{2-[4-oxo-2-(3-trifluoromethoxy-phenyl)-1,3,8-triaza-spiro[4.5]dec-1-ene-8-sulfonyl]-ethyl}-benzenesulfonamide]",83
15,"Cc1cc(S(=O)(=O)NCc2cccnc2)ccc1/C=C/S(=O)(=O)N1CCC2(CC1)N=C(c1cccc(C(F)(F)F)c1)NC2=O [Compound 591, 3-methyl-4-{(E)-2-[4-oxo-2-(3-trifluoromethyl-phenyl)-1,3,8-triaza-spiro[4.5]dec-1-ene-8-sulfonyl]-vinyl}-N-pyridin-3-ylmethyl-benzenesulfonamide]",34
16,"O=C1NC(c2cccc(Cl)c2)=NC12CCN(S(=O)(=O)c1cccc(Cl)c1)CC2 [Compound 6, 8-(3-chloro-benzenesulfonyl)-2-(3-chloro-phenyl)-1,3,8-triaza-spiro[4.5]dec-1-en-4-one]",4.2
17,"CC(=O)Nc1ccc(CCS(=O)(=O)N2CCC3(CC2)N=C(c2ccc(C#N)cc2)NC3=O)c(C)c1 [Compound 906, N-(4-{2-[2-(4-cyano-phenyl)-4-oxo-1,3,8-triaza-spiro[4.5]dec-1-ene-8-sulfonyl]-ethyl}-3-methyl-phenyl)-acetamide]",78
18,"Cc1cc(N(C)C(N)=O)cc(C)c1CCS(=O)(=O)N1CCC2(CC1)N=C(CCCCCCCCC(F)F)NC2=O [Compound 1323, 1-(4-{2-[2-(9,9-Difluoro-nonyl)-4-oxo-1,3,8-triaza-spiro[4.5]dec-1-ene-8-sulfonyl]-ethyl}-3,5-dimethyl-phenyl)-1-methyl-urea]",78
19,"O=C1NC(C2CCCCC2)=NC12CCN(S(=O)(=O)/C=C/c1ccc(CCO)cc1)CC2 [Compound 187, 2-cyclohexyl-8-{(E)-2-[4-(2-hydroxy-ethyl)-phenyl]-ethenesulfonyl}-1,3,8-triaza-spiro[4.5]dec-1-en-4-one]",12
20,"Cc1cc(C(=O)NN)cc(C)c1CCS(=O)(=O)N1CCC2(CC1)N=C(C1CCC(CCC(F)(F)F)CC1)NC2=O (stereo not drawn) [Compound 1385, 3,5-dimethyl-4-(2-{4-oxo-2-[4-(3,3,3-trifluoro-propyl)-cyclohexyl]-1,3,8-triaza-spiro[4.5]dec-1-ene-8-sulfonyl}-ethyl)-benzoic acid hydrazide]",92
21,"CCCC[C@H]1CC[C@H](C2=NC3(CCN(S(=O)(=O)/C=C/c4c(C)cc(N(CC5(C)COC5)C(C)=O)cc4C)CC3)C(=O)N2)CC1 [Compound 632, N-(4-{(E)-2-[2-(4-butyl-cyclohexyl)-4-oxo-1,3,8-triaza-spiro[4.5]dec-1-ene-8-sulfonyl]-vinyl}-3,5-dimethyl-phenyl)-N-(3-methyl-oxetan-3-ylmethyl)-acetamide]",51
22,"Cc1cc(C(=O)N2CCC(O)(CF)CC2)cc(C)c1/C=C/S(=O)(=O)N1CCC2(CC1)N=C(c1ccc(OC(C)(C)C(F)(F)F)c(C(F)(F)F)c1)NC2=O [Compound 1265, 8-{(E)-2-[4-(4-fluoromethyl-4-hydroxy-piperidine-1-carbonyl)-2,6-dimethyl-phenyl]-ethenesulfonyl}-2-[4-(2,2,2-trifluoro-1,1-dimethyl-ethoxy)-3-trifluoromethyl-phenyl]-1,3,8-triaza-spiro[4.5]dec-1-en-4-one]",89
23,"Cc1cc(C(=O)N2CCC(C)(O)CC2)cc(C)c1/C=C/S(=O)(=O)N1CCC2(CC1)N=C(c1ccc(F)c(Cl)c1)NC2=O [Compound 1186, 2-(3-chloro-4-fluoro-phenyl)-8-{(E)-2-[4-(4-hydroxy-4-methyl-piperidine-1-carbonyl)-2,6-dimethyl-phenyl]-ethenesulfonyl}-1,3,8-triaza-spiro[4.5]dec-1-en-4-one]",110
